Test results reported in patent US9605013B2, “Derivatives of hemin with antibacterial and antiviral activity” (OBSCHESTVO S OGRANICHENNOI OTVETSTVENNOSTIYU …, priority 2011, dated 2017).

System: Herpes Simplex Virus type 2 strain G (No. VR-734 ATCC)
Assay: Antiviral activity, virus cytopathogenic action in Vero cells
Type: cell-based
Set-up: key: 0: CPA (cytopathogenic action) is not detected; 1: up to 25% virus-infected monolayer; from 25% to 50%; 3: from 50% to 75%; 4: from 75% to 100%
Conditions: 48 hours
Method: […] used in the study were used Herpes Simplex Virus type 1 (the Collection of Microorganisms at the Scientific Research Institute of Virology, strain EC), Herpes Simplex Virus type 2 strain G (No. VR-734 ATCC), and human cytomegalovirus strain AD169 (No. VR-538 ATCC). Herpes Simplex viruses type 1 and type 2 were cultured in Vero cells. The cells were incubated in MEM Eagle growth medium (MEM, BioloT, St-Petersburg, 1.3.3) supplemented with 10% fetal bovine serum (BioloT, St-Petersburg, 1.3.12) in Sanyo MCO-15AC gas-flow thermostat (37° C., 5% CO2) (Tokyo, Japan). A seed dose was 2×10^5 cells/ml in the starting inoculum or 2×10^4 cells/well. Herpes Simplex viruses were cultured under the same conditions in the MEM medium without serum (maintenance medium). Starting viral titers were 10^7 TCID50/ml.
For DMSO-soluble preparations, stock solutions were prepared in a concentration of 10 mM in DMSO. For water-soluble preparations, a stock solution prepared had the same concentration in the MEM medium (Minimal Essential Medium) for cell cultures. To control cytotoxicity (see below), the stock solution was diluted in the medium to a concentration of 100 μM and ten-fold serial dilutions of the preparations were made in the MEM medium (for DMSO-soluble compounds—in the MEM medium comprising 3% DMSO). The following concentrations of the preparations were used in the study of […]: if toxicity was not found, the concentrations of 100 μM preparations were 100, 10 and 1 μM; if toxicity was detected, the concentrations of 100 μM preparations were 10, 1, and 0.1 μM. Acyclovir (10 μg/ml) was used for Herpes Simplex viruses of both types as a reference preparation to control the viral model validity.
To study antiviral activity, plate wells with a cell monolayer were added with the preparations in an amount of 0.1 ml/well. To compensate a reduction in the concentration of the preparations, which takes place in the following addition of viruses, twofold concentrations of compounds (i.e. 200, 20 and 2 or 20, 2 and 0.2 μM for […] concentrations of 100 μM preparations, respectively) were used, incubated for an hour and then were infected with the examined 0.1 ml/well viruses in doses 1, 10 and 100 TCID50 (50% tissue infectious dose).
The virus-specific cytogenic action was manifested in an increase in the size of cells, their rounding, and detachment from a substrate. These morphological characteristics served as their marked difference from the cells subjected to a toxic action of high concentrations of the examined preparations. The latter acquired spindle-like shape, lost contacts with neighboring cells of the monolayer, and their boundaries became more distinct.
Intensity of the virus-specific changes in the cells were semi-quantified using a 4-score system: 0—CPA (cytopathogenic action) is not detected; 1—up to 25% virus-infected monolayer; 2—from 25% to 50%; 3—from 50% to 75%; and 4—from 75% to 100%. The antiviral activity of a compound was evaluated according to their ability to reduce the manifestation of cytopathogenic action in the plate wells compared to the control values. Differences with the control values by 1 score and more were considered to be significant.

[1] = HSV-2, virus dose 1, concentration 0.1 μM
[2] = HSV-2, virus dose 1, concentration 1 μM
[3] = HSV-2, virus dose 1, concentration 10 μM
[4] = HSV-2, virus dose 10, concentration 0.1 μM
[5] = HSV-2, virus dose 10, concentration 1 μM
[6] = HSV-2, virus dose 10, concentration 10 μM
[7] = HSV-2, virus dose 100, concentration 0.1 μM
[8] = HSV-2, virus dose 100, concentration 1 μM
[9] = HSV-2, virus dose 100, concentration 10 μM

Compound	manifestation of the virus CPA [1]	manifestation of the virus CPA [2]	manifestation of the virus CPA [3]	manifestation of the virus CPA [4]	manifestation of the virus CPA [5]	manifestation of the virus CPA [6]	manifestation of the virus CPA [7]	manifestation of the virus CPA [8]	manifestation of the virus CPA [9]
6,7-bis-(Amide N^α-Glycyl)-Protohemin (IX) [IV]	1 (up to 25% virus-infected monolayer)	0.5 scores	0^1	2 (from 25% to 50%)	2 (from 25% to 50%)	0^1	3 (from 50% to 75%)	3 (from 50% to 75%)	0^1
6,7-bis-[(Diamide N^α-L-Arginyl)-L-glutamyl]-Protohemin (IX)	1 (up to 25% virus-infected monolayer)	0.5 scores	0^1	2 (from 25% to 50%)	2 (from 25% to 50%)	1^1 (up to 25% virus-infected monolayer)	3 (from 50% to 75%)	3 (from 50% to 75%)	3 (from 50% to 75%)
C=CC1=C(C)c2cc3[n-]c(cc4[n-]c(cc5nc(cc1n2)C(C)=C5C=C)c(C)c4CCC(=O)N[C@@H](CCCNC(=N)N)C(N)=O)c(CCC(=O)N[C@@H](CCCNC(=N)N)C(N)=O)c3C.[Cl-].[Fe+3] [II, 6,7-bis-(Amide N^α-Arginyl)-Protohemin (IX)]	1 (up to 25% virus-infected monolayer)	0.5 scores	0^1	1.5 scores	2 (from 25% to 50%)	1^1 (up to 25% virus-infected monolayer)	3 (from 50% to 75%)	3 (from 50% to 75%)	3 (from 50% to 75%)
C=CC1=C(C)c2cc3[n-]c(cc4[n-]c(cc5nc(cc1n2)C(C)=C5C=C)c(C)c4CCC(=O)N[C@@H](CO)C(N)=O)c(CCC(=O)N[C@@H](CO)C(N)=O)c3C.[Cl-].[Fe+3] [V, 6,7-bis-(Amide N^α-Seryl)-Protohemin (IX)]	1 (up to 25% virus-infected monolayer)	0.5 scores	0^1	2 (from 25% to 50%)	2 (from 25% to 50%)	0^1	3 (from 50% to 75%)	3 (from 50% to 75%)	2^1 (from 25% to 50%)
C=CC1=C(C)c2cc3[n-]c(cc4[n-]c(cc5nc(cc1n2)C(C)=C5C=C)c(C)c4CCC(=O)N[C@@H](CO)C(=O)O)c(CCC(=O)N[C@@H](CO)C(=O)O)c3C.[Cl-].[Fe+3] [VI, 6,7-bis-(N^α-Seryl]-Protohemin (IX)]	1 (up to 25% virus-infected monolayer)	1 (up to 25% virus-infected monolayer)	0^1	2 (from 25% to 50%)	2 (from 25% to 50%)	0^1	3 (from 50% to 75%)	3 (from 50% to 75%)	2^1 (from 25% to 50%)
